Patent US11352359B2, “PI3K protein kinase inhibitors” (Rhizen Pharmaceuticals SA, priority 2013, dated 2022)

How the values were obtained:
Format in all cases: biochemical
PI3Kδ = PI3Kδ (Homo sapiens, UniProt O00329); test: Fluorescent determination of PI3Kinase enzyme activity (HTRF), PI3Kδ; conditions: for inhibition at 0.1 µM: 100 nM (underlined values: 300 nM)
Excerpt: (§1) Fluorescent Determination of PI3Kinase Enzyme Activity
(§2) Phosphoinositide 3 kinases (PI3K) belong to a class of Lipid kinases that play a critical role in the regulation of several key cellular processes. The PI3K are capable of phosphorylating the 3-hydroxy position of phosphoinositols thereby generating second messengers involved in downstream signalling events. The homogenous time resolved fluorescence (HTRF) assay allows detection of 3,4,5-triphosphate (PIP3) formed as a result of phosphorylation of phosphotidylinositol 4,5-biphosphate (PIP2) by PI3K isoforms such as α, […], γ or δ.
(§3) PI3K isoform activity for α, β, γ or δ is to be determined using a PI3K human HTRF™ Assay Kit (Millipore, Billerica, Mass.) with modifications. All incubations were carried out at room temperature. Briefly, 0.5 μl of 40× inhibitor (in 100% DMSO) or 100% DMSO were added to each well of a 384-well black plate (Greiner Bio-One, Monroe, N.C.) containing 14.5 μl 1× reaction buffer/PIP2 (10 mM MgCl2, 5 mM DTT, 1.38 μM PIP2) mix with or without enzyme and incubated for 10 min. After the initial incubation, 5 μl/well of 400 μM ATP was added and incubated for an additional 30 minutes. Reaction was terminated by adding 5 μl/well stop solution (Millipore, Billerica, Mass.). Five microliters of detection mix (Millipore, Billerica, Mass.) were then added to each well and was incubated for 6-18 h in the dark. HRTF ratio was measured on a microplate reader (BMG Labtech, Germany) at an excitation wavelength of 337 nm and emission wavelengths of 665 and 620 nm with an integration time of 400 μsec. Data was analyzed using Graphpad Prism (Graphpad software; San Diego Calif.) for IC50 determination).

PI3Kγ = PI3Kγ (Homo sapiens, UniProt P48736); test: Fluorescent determination of PI3Kinase enzyme activity (HTRF), PI3Kγ; conditions: for inhibition at 0.1 µM: 100 nM (underlined values: 300 nM)
Sequence of PI3Kγ (P48736 whole entry): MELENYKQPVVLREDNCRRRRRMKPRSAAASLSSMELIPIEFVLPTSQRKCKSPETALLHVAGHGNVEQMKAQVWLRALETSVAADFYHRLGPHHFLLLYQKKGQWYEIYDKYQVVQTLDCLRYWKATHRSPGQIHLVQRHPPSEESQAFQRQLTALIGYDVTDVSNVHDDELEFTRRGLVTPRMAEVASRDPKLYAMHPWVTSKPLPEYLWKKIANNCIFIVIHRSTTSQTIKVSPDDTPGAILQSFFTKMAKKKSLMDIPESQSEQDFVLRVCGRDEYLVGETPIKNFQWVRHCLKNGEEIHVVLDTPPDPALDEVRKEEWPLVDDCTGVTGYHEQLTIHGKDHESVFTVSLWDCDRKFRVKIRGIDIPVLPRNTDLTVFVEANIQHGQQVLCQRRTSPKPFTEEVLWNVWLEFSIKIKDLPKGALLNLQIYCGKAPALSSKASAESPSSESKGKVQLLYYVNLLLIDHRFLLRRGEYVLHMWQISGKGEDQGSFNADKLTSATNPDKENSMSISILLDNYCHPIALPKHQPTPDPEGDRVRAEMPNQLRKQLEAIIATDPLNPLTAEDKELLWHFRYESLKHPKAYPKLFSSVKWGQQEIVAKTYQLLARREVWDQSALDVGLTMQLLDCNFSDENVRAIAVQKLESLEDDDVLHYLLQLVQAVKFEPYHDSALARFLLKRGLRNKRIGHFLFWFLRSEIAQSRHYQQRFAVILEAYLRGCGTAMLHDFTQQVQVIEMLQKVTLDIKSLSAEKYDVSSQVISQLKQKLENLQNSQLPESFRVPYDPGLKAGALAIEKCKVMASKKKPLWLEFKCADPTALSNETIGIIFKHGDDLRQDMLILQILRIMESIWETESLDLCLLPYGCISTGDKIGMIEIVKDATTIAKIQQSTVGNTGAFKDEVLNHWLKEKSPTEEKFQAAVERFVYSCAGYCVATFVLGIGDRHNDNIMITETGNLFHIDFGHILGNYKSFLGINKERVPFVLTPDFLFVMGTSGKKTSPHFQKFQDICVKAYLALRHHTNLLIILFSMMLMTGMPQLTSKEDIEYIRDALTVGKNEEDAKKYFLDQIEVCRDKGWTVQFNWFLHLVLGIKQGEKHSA
Excerpt: as §1, §2, §3

PI3Kα = PI3Kα (Homo sapiens, UniProt P42336); test: Fluorescent determination of PI3Kinase enzyme activity (HTRF), PI3Kα
Sequence of PI3Kα (P42336 whole entry): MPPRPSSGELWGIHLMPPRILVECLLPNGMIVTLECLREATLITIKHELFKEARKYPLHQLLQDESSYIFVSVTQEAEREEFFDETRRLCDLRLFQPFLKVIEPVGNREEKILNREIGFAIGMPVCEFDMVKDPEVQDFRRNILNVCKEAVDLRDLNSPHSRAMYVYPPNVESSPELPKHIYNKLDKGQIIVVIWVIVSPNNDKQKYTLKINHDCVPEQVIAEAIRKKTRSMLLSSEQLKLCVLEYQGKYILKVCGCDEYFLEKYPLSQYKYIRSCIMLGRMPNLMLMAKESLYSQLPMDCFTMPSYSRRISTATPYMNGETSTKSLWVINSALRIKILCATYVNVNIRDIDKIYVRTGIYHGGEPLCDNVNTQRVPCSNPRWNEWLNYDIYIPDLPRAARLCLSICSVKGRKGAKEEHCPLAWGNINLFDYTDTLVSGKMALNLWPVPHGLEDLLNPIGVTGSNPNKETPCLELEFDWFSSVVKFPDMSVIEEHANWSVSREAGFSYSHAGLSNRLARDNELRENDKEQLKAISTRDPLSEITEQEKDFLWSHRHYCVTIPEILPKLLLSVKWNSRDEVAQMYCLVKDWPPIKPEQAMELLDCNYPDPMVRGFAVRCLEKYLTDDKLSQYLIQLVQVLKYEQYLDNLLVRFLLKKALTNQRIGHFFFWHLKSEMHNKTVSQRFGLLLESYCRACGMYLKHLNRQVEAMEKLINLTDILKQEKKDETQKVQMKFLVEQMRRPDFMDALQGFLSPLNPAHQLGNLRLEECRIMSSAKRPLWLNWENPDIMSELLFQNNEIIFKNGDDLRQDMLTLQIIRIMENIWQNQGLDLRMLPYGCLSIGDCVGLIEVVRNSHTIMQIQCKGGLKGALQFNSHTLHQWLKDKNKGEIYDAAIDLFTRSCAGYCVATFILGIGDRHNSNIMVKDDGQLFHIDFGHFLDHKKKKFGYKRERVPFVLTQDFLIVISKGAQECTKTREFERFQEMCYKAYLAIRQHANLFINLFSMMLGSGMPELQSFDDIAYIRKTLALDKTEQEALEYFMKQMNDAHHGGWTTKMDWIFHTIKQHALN
Sequence of PI3Kα (P27986 whole entry partner): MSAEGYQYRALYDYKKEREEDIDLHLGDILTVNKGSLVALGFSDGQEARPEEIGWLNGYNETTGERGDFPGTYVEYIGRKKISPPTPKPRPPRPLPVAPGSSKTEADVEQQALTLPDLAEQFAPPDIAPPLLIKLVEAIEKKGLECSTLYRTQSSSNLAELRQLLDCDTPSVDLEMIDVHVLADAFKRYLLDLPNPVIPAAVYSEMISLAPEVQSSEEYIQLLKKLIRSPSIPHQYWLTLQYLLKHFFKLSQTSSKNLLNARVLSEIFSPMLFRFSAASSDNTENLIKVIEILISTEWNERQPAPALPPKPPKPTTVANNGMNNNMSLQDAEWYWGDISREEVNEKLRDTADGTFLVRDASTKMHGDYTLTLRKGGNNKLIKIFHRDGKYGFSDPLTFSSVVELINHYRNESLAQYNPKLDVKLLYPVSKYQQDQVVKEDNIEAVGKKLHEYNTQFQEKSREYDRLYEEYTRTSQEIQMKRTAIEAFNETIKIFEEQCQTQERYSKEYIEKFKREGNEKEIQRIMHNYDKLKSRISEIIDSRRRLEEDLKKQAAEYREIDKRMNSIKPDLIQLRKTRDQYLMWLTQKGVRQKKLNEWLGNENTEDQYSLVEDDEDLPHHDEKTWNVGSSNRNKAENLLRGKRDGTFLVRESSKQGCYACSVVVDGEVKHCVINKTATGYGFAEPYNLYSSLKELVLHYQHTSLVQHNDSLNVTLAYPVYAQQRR
Excerpt: as §1, §2, §3

PI3Kβ = PI3Kβ (Homo sapiens, UniProt P42338); test: Fluorescent determination of PI3Kinase enzyme activity (HTRF), PI3Kβ
Sequence of PI3Kβ (P42338 whole entry): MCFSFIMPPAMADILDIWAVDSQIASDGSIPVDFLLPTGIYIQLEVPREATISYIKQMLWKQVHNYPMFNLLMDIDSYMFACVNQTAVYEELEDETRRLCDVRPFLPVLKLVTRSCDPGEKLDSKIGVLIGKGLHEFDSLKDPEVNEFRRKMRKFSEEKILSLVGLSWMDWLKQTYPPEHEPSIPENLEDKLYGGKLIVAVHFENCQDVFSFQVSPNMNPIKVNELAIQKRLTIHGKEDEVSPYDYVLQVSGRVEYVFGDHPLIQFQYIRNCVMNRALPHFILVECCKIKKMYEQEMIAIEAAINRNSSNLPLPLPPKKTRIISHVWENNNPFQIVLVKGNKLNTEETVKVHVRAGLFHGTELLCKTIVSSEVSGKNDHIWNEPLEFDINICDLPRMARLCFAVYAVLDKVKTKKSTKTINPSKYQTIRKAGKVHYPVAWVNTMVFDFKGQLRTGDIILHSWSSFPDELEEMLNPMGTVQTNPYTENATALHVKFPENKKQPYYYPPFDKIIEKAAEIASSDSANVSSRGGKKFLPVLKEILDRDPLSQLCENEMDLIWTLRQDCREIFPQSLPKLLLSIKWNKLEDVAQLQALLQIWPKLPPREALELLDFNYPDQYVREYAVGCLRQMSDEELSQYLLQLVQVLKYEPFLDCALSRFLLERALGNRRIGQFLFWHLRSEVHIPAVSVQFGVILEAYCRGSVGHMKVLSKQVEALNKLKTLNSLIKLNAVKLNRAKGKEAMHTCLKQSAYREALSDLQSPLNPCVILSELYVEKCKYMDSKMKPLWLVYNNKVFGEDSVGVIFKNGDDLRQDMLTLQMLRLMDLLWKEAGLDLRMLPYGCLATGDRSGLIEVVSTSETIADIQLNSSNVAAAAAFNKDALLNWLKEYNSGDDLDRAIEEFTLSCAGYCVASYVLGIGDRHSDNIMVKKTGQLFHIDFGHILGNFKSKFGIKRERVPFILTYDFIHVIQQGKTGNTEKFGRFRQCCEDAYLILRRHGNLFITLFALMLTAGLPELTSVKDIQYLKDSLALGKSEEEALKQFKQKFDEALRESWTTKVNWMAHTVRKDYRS
Sequence of PI3Kβ (P27986 whole entry partner): as the sequence (P27986 whole entry partner) above
Excerpt: as §1, §2, §3

Sequence of PI3Kδ (O00329 whole entry): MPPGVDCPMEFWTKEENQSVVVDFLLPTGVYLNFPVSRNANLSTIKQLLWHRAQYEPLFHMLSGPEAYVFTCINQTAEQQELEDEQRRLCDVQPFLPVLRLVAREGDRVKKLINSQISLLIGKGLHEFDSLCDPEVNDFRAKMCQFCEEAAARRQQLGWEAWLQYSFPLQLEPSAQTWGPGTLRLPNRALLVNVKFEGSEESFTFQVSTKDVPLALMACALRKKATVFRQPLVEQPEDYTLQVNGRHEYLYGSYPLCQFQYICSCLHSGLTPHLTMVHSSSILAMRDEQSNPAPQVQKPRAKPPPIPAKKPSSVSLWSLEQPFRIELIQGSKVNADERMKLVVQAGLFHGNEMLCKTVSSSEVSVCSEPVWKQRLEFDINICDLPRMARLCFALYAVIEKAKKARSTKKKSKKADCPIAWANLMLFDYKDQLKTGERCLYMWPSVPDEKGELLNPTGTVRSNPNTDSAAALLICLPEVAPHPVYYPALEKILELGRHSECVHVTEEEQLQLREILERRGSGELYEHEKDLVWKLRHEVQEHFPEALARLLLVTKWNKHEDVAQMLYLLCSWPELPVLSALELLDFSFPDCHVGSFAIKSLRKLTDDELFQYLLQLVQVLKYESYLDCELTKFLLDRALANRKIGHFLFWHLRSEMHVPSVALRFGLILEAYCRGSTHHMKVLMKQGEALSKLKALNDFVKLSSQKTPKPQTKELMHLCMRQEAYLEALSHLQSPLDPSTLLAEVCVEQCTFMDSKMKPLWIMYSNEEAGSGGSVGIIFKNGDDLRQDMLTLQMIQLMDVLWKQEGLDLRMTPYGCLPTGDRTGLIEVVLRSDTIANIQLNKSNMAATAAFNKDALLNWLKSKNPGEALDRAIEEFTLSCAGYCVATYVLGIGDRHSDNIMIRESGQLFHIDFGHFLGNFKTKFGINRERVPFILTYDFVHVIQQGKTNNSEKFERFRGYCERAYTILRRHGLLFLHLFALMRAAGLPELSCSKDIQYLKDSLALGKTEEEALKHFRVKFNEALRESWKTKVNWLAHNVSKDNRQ
Sequence of PI3Kδ (P27986 whole entry partner): as the sequence (P27986 whole entry partner) above

IC50 (PI3Kδ) [nM] | inhibition at 0.1 µM (PI3Kδ) [%] | IC50 (PI3Kγ) [nM] | inhibition at 0.1 µM (PI3Kγ) [%] | inhibition at 1 µM (PI3Kα) [%] | inhibition at 1 µM (PI3Kβ) [%] | SMILES
2.74 | 80 to 100 | 15 | 40 to 60 | 0 to 10 | 20 to 40 | CC(C)Oc1ccc(-c2nn([C@@H](C)c3nc4ccccc4c(=O)n3-c3ccccc3)c3ncnc(N)c23)cc1F [Example 6a, (+)-2-(1-(4-amino-3-(3-fluoro-4-isopropoxyphenyl)-1H-pyrazolo[3,4-d]pyrimidin-1-yl)ethyl)-3-phenylquinazolin-4(3H)-one]
16.2 | 80 to 100 | 203 | 40 to 60 | 0 to 10 | 20 to 40 | COc1ccc(-c2nn([C@@H](C)c3cc4ccccc4c(=O)n3-c3ccccc3)c3ncnc(N)c23)cc1NS(C)(=O)=O [Example 9a, (+)—N-(5-(4-amino-1-(1-(1-oxo-2-phenyl-1,2-dihydroisoquinolin-3-yl)ethyl)-1H-pyrazolo[3,4-d]pyrimidin-3-yl)-2-methoxyphenyl)methanesulfonamide]
– | 40 to 60 | – | 20 to 40 | 10 to 20 | 20 to 40 | CC(c1cc2ccccc2c(=O)n1-c1ccccc1)n1nc(-c2ccc(O)c(F)c2)c2c(N)ncnc21 (stereo not shown) [Example 7, 3-(1-(4-amino-3-(3-fluoro-4-hydroxyphenyl)-1H-pyrazolo[3,4-d]pyrimidin-1-yl)ethyl)-2-phenylisoquinolin-1(2H)-one]
– | 80 to 100 | – | 40 to 60 | 0 to 10 | 0 to 10 | CC(C)Oc1ccc(-c2nn(C(C)c3nc4ccccc4c(=O)n3-c3ccccc3)c3ncnc(N)c23)cc1F (stereo not shown) [Example 6, 2-(1-(4-amino-3-(3-fluoro-4-isopropoxyphenyl)-1H-pyrazolo[3,4-d]pyrimidin-1-yl)ethyl)-3-phenylquinazolin-4(3H)-one]
3.05 | 80 to 100 | 22.2 | 60 to 80 | 0 to 10 | 20 to 40 | CC(C)Oc1ccc(-c2nn([C@@H](C)c3cc4ccccc4c(=O)n3-c3ccccc3)c3ncnc(N)c23)cc1F [Example 5a, (+)-3-(1-(4-amino-3-(3-fluoro-4-isopropoxyphenyl)-1H-pyrazolo[3,4-d]pyrimidin-1-yl)ethyl)-2-phenylisoquinolin-1(2H)-one]

Second part, the compound before the results:

SMILES | IC50 (PI3Kδ) [nM] | inhibition at 0.1 µM (PI3Kδ) [%] | IC50 (PI3Kγ) [nM] | inhibition at 0.1 µM (PI3Kγ) [%] | inhibition at 1 µM (PI3Kα) [%] | inhibition at 1 µM (PI3Kβ) [%]
C[C@@H](c1cc2cccc(F)c2c(=O)n1-c1ccccc1)n1nc(-c2ccc(O)c(F)c2)c2c(N)ncnc21 [Example 15a, (+)-3-(1-(4-amino-3-(3-fluoro-4-hydroxyphenyl)-1H-pyrazolo[3,4-d]pyrimidin-1-yl)ethyl)-8-fluoro-2-phenylisoquinolin-1(2H)-one] | 9.99 | 80 to 100 | 52 | 40 to 60 | 0 to 10 | 10 to 20
COc1ccc(-c2nn(C(C)c3cc4cccc(Cl)c4c(=O)n3-c3ccccc3)c3ncnc(N)c23)cc1NS(C)(=O)=O (stereo not shown) [Example 20, N-(5-(4-amino-1-(1-(8-chloro-1-oxo-2-phenyl-1,2-dihydroisoquinolin-3-yl)ethyl)-1H-pyrazolo[3,4-d]pyrimidin-3-yl)-2-methoxyphenyl)methanesulfonamide] | – | 80 to 100 | – | 60 to 80 | 40 to 60 | 20 to 40
Cc1n[nH]c2cc(-c3nn([C@@H](C)c4cc5cccc(Cl)c5c(=O)n4-c4ccccc4)c4ncnc(N)c34)ccc12 [Example 21a, (+)-3-(1-(4-amino-3-(3-methyl-1H-indazol-6-yl)-1H-pyrazolo[3,4-d]pyrimidin-1-yl)ethyl)-8-chloro-2-phenylisoquinolin-1(2H)-one] | – | 80 to 100 | – | 60 to 80 | 0 to 10 | 0 to 10
